# Columns and labels:
# human recombinant DGL = tested on: human recombinant DGL; parameters: method as in Bisogno et al., 2006; details: ref Bisogno et al., 2006, read-out: IC50 reported for human recombinant DGL; cited from earlier work
# FAE metabolism = experiment: THL oral gavage: levels of FAEs in jejunum mucosa, lung and plasma; type: in vivo, mouse
# Method: Adult C57BL/6J male mice were food-deprived for 24 h prior to harvest with ad libitum access to water. To prevent coprophagia, animals were maintained on elevated wire-bottom cages for a 72-hour acclimation period and during the 24-hour food deprivation. One hour prior to harvest, mice received an oral gavage (100 μL of 10 mg/mL) of the DGL inhibitor, THL, in polyethylene glycol (PEG) or PEG alone as control. Jejunum intestinal epithelium and lungs were harvested as described above (see section “Tissue Harvest and Preparation for Enzyme Assays”).
# Frozen tissue samples were weighed and homogenized in 1.0 mL of methanol containing the internal standards [^2H5]-2-AG (500 pmol), [^2H4]-AEA (1 pmol), and [^2H4]-OEA (10 pmol). Lipids were extracted using chloroform (2.0 mL) prior to being washed with 1.0 mL 0.2-micron ultra-purified water. Following centrifugation (1,500 × g, 15 min, 4°C), the lower organic phase was collected and dried under N2 steam (99.998% pure). A second chloroform wash (1.0 mL) was then performed followed by another centrifugation (1,500 × g, 15 min, 4°C) and collection of the lower phase. Samples were reconstituted in 2.0 mL of chloroform and purified via open-bed silica gel column chromatography. Columns were washed with a 9:1 chloroform:methanol mixture to elute MAGs and FAEs for collection. Collected eluates were dried under N2 steam (99.998% pure) and resuspended in 0.2 mL of methanol:chloroform (1:1) prior to analysis via UPLC-MS/MS (see section “Quantitation of MAGs and FAEs”).
# Data was acquired using equipment described above (see section “UPLC-MS/MS Detection of Analytes”) and using the elution protocol described above (see section “Quantitation of MAG Biosynthetic Enzyme Activity Assay Products”). Cone voltage and collision energy for each analyte are as follows, respectively: AEA = 30 v, 14 v; [^2H4]-AEA = 26 v, 16v; OEA = 28 v, 16 v; [^2H4]-OEA = 48 v, 14 v; DHEA = 30 v, 50 v; 2-AG (20:4) = 30 v, 12 v; [^2H5]-2-AG = 25 v, 44v; 2-DG (22:6) = 34 v, 14 v; 2-PG (16:0) = 18 v, 10 v; 2-OG (18:1) = 42 v, 10 v; 2-LG (18:2) = 30 v, 10 v. MS/MS detection was in positive ion mode and capillary voltage set at 0.1 kV. Extracted ion chromatograms were used to quantify AEA (m/z = 348.3 > 62.0), [^2H4]-AEA (m/z = 352.3 > 66.1), OEA (m/z = 326.4 > 62.1), [^2H4]-OEA (m/z = 330.4 > 66.0), DHEA (m/z = 372.3 > 91.0), 2-AG (m/z = 379.3 > 287.3), [^2H5]-2-AG (m/z = 384.3 > 93.4), 2-DG (m/z = 403.3 > 311.1), 2-PG (m/z = 331.3 > 239.3), 2-OG (m/z = 357.4 > 265.2), and 2-LG (m/z = 355.3 > 263.3). Quantitation occurred using a stable isotope dilution method to detect protonated adducts of the ions [M + H] + in MRM mode. Acyl migration is known to occur in many MAG species following silica-gel purification, therefore the sum of 1-AG and 2-AG, 1-PG and 2-PG, 1-OG and 2-OG, and 1-DG and 2-DG are reported ([Stella et al., 1997]). The established lower limit of quantitation (LLOQ: signal to noise ratio >10) for 2-AG, 2-DG, 2-PG, 2-OG, and 2-LG was 0.5 pmol. The LLOQ for AEA, OEA, and DHEA was 0.008 pmol.
# [1] = THL 1 mg oral, 1 h prior to tissue harvest
smiles,measurement,setting,value
"CCCCCCCCCCC[C@@H](C[C@@H]1OC(=O)[C@H]1CCCCCC)OC(=O)[C@H](CC(C)C)NC=O [THL, tetrahydrolipstatin]",IC50,human recombinant DGL,60 nM
same,AEA level in jejunum mucosa,"FAE metabolism; THL 1 mg oral gavage 1 h prior to harvest, vehicle 2.85 ± 0.29",2.41 ± 0.24 pmol/g
same,AEA level in lung,"FAE metabolism; THL 1 mg oral gavage 1 h prior to harvest, vehicle 3.14 ± 0.14",2.85 ± 0.08 pmol/g
same,AEA level in plasma,"FAE metabolism; THL 1 mg oral gavage 1 h prior to harvest, vehicle 3.76 ± 0.07",3.11 ± 0.50 pmol/mL
same,DHEA level in plasma,"FAE metabolism; THL 1 mg oral gavage 1 h prior to harvest, vehicle 6.41 ± 0.76",5.62 ± 0.43 pmol/mL
same,DHEA level in lung,"FAE metabolism; THL 1 mg oral gavage 1 h prior to harvest, vehicle 14.25 ± 2.18",16.13 ± 1.19 pmol/g
same,DHEA level in jejunum mucosa,"FAE metabolism; THL 1 mg oral gavage 1 h prior to harvest, vehicle 14.53 ± 1.25",18.97 ± 5.08 pmol/g
same,OEA level in plasma,"FAE metabolism; THL 1 mg oral gavage 1 h prior to harvest, vehicle 41.19 ± 3.84",36.12 ± 2.36 pmol/mL
same,OEA level in jejunum mucosa,"FAE metabolism; THL 1 mg oral gavage 1 h prior to harvest, vehicle 52.23 ± 6.73",46.83 ± 9.00 pmol/g
same,OEA level in lung,"FAE metabolism; THL 1 mg oral gavage 1 h prior to harvest, vehicle 92.06 ± 4.99",83.75 ± 3.44 pmol/g
same,effect on levels of FAEs in jejunum mucosa vs vehicle,FAE metabolism; [1],no changes
same,effect on levels of FAEs in lung tissue vs vehicle,FAE metabolism; [1],no changes
same,effect on plasma concentrations of FAEs vs vehicle,FAE metabolism; [1],unaffected

# Source: PMC8317065, “UPLC-MS/MS Method for Analysis of Endocannabinoid and Related Lipid Metabolism in Mouse Mucosal Tissue” (Frontiers in Physiology, 2021)
